The text below walks through data of article PMC7996082, “The translocator protein ligands as mitochondrial functional modulators for the potential anti-Alzheimer agents” (Journal of Enzyme Inhibition and Medicinal Chemistry, 2021).

The structures appear in SMILES notation.

For test [1], the system named is transgenic AD model mice (APPswe/PSEN1dE9). The experiment in a line: Y-maze spontaneous alternation test in transgenic AD model mice. The conditions noted are these: Tg APPswe/PSEN1dE9 mice, 30 mg/kg daily, 1 month, PO. The test is classed as in vivo, mouse.
Test [2] has as its system HT22 cells treated with Aβ. The experiment in a line: Cellular ROS assay (DCFDA): inhibition of Aβ-induced ROS generation. It counts as cell-based, mouse. The conditions noted are these: Mus musculus, HT-22, 5 μM compound. How it is done:
Among 56 compounds, 23 compounds were selected and further tested for the luciferase-based ATP assay. […] Thus, we chose these two compounds and further evaluated their biological activity by measuring cell viability and reactive oxygen species (ROS) production. The effects on cell viability of each compound under Aβ-induced cytotoxicity were determined by measuring the metabolic activity of NAD(P)H-dependent cellular oxidoreductases using the 3–(4,5-dimethylthiazol-2-yl)-2,5-diphenyl-tetrazolium bromide (MTT) dye. To measure cellular ROS levels, we used a fluorescence indicator, 2′,7′-dichlorofluorescein diacetate (DCFDA), and calculated the percent inhibition of ROS generation by applying the same method used for MTT assays. Compound 7 inhibited Aβ-induced ROS generation (97% at 5 µM) almost to the level of the untreated control (Table 1). […] On the basis of the in vitro activity, we selected compound 7 as the best hit from the initial screening library.

Test [3] relates to transgenic AD model mice (APPswe/PSEN1dE9). In words: Contextual fear conditioning test in transgenic AD model mice. The conditions noted are these: Tg AD model mice, 30 mg/kg daily, 1 month, PO. It counts as in vivo, mouse. How it is done:
The acute AD mice model was prepared by administration of Aβ1-42 solution (10% DMSO/90% PBS) to male ICR mice (6 weeks old, 30 − 33 g) via intracerebroventricular (ICV) injection (Aβ1-42 dose: 500 pmol/mouse) as described previously. The wild type mice (B6C3F1) and double APP/PS1 transgenic mice (Tg AD mice model; APPswe/PSEN1dE9) were purchased from Jackson Laboratory (Bar Harbour, ME, USA). The Tg AD model mice were 11 months old at the beginning of the behaviour test, and were housed for 1 month in a room under controlled temperature and fed ad libitum. The behaviour tests were conducted during daytime in air-controlled and soundproof experiment room. The animal experiments were abided by the guidelines of the Institutional Animal Care and Use Committee of Korea Institute of Science and Technology.
To the Tg mice of the AD model (n = 7 per group), each test compound (30 mg/kg) was orally administrated daily for 1 month. […] Freezing response was measured by the fear conditioning system without application of CS or US.
In addition, we assessed recovery effects of compound 7 by performing contextual fear conditioning tests.[40] Healthy mice show higher number of total freezing, which is an index of fear learning and memory of rodents; therefore, the number of total freezing responses under fear-relevant stimuli was measured with the compound-treated Tg AD model mice. […]

The inhibition is the share of the control response that was lost under treatment. Higher therefore signals a response far below the control. As to `CCOc1ccc(-n2c(SCC(=O)Nc3ccc(OC)c(OC)c3)nc3sc4c(c3c2=O)CCN(C(C)=O)C4)cc1` [Compound 7], the “Recovery of Y-maze spontaneous alternations” value in test [1] was 50%. This molecule also had an inhibition at 5 µM in test [2] of 97%. In addition, the “Contextual fear conditioning: percent recovery of freezing” value in test [3] worked out at 62%.
